Results taken from US11970731B2, “Enhancement of nucleic acid polymerization by aromatic compounds” (priority 2018, dated 2024).

Assays:
[1] = target: T1, C4760 DNA polymerase (a variant of DPO4) (Saccharolobus solfataricus, UniProt Q97W02, A155G/A42V/D156R/D292Y/D294N/E291S/E324K/E325K/E327K/E63R/E79L/G187P/G299W/I153V/I189F/I248T/I295S/K152A/K317Q/K321Q/K56Y/K78D/L293W/M76W/N188Y/P184Q/Q82W/Q83G/R300S/S297Y/S86E/T290K/T301W/V289W/V296Q); assay: Primer extension assays using the HIV2 100 mer template; assay type: biochemical, Sulfolobus solfataricus
T1 construct: made in house
Description: PEM activity of compound 12 was tested in primer extension assays using the HIV2 100 mer template. Primer extension reactions included the following reagents: 50 mM TrisCl, 200 mM NH4OAc, 20% PEG8K, 5% NMS, 0.6 nmol PP-60.20, 0.6 mM MnCl2, 2.75 μg/μl Eco single-strand binding protein (SSB), 1 M urea, 50 pmol each XNTP, 1.1 pmol template, 1 pmol oligonucleotide primer, 1.2 μg/μl purified recombinant C4760 DNA polymerase (SEQ ID NO:2), and 0.5, 1, or 1.5 mM PEM. 10 μL primer extension reactions were run for 30 minutes at 23° C. and reaction products were analyzed by gel electrophoresis. […] Lanes 2-4 show primer extension products from reactions with a structurally related additive lacking robust PEM activity.
PEM activity of compounds 13 and 14 was tested in primer extension assays using the HIV2 100 mer template. Primer extension reactions included the following reagents: 50 mM TrisCl, 200 mM NH4OAc, 20% PEG8K, 5% NMS, 0.6 nmol PP-60.20, 0.6 mM MnCl2, 2.75 μg/μl Eco single-strand binding protein (SSB), 1 M urea, 50 pmol each XNTP, 1.1 pmol template, 1 pmol oligonucleotide primer, 1.2 μg/μl purified recombinant C4760 DNA polymerase (a variant of DPO4, see SEQ ID NO:2), and 0.5, 1, 1.52, or 2.5 mM PEM. 10 μL primer extension reactions were run for 30 minutes at 23° C. and reaction products were analyzed by gel electrophoresis. A representative gel showing primer extension products is presented in FIG. 11 (the position of the full length HIV2 100 mer is indicated by the arrow).
PEM activity of compounds 16, 17, and 18 and combinations thereof were tested in primer extension assays using the HIV2-derived 100mer template. Primer extension reactions included the following reagents: 50 mM TrisCl, 200 mM NH4OAc, 20% or 25% PEG8K, 5% NMS, 0.6 nmol PP-60.20, 0.6 mM MnCl2, 2 μg Kod single-strand binding protein (SSB), 1 M urea, 50 pmol each XNTP, 1 pmol template, 1 pmol oligonucleotide primer, 1.2 μg purified recombinant C4760 DNA polymerase (a variant of DPO4, see SEQ ID NO:2), and 0.5-2 mM PEM. 10 μL primer extension reactions were run for 30 minutes at 37° C. and reaction products were analyzed by gel electrophoresis. A representative gel showing primer extension products is presented in FIG. 13 (the position of a 100mer product is indicated by the arrow).

[2] = system: DNA polymerase; assay: Screen of PEMs for enhancement of XNTP polymerization (primer extension, gel electrophoresis); assay type: biochemical; conditions: for DNA polymerase-mediated primer extension with XNTPs (length of extension products): FIG. 4 gel, 45 mer template, without PEM additive up to only around 14 XNTPs
Description: A representative primer extension reaction may include the following reagents: 2 pmol primer, 2.2 pmol 45 mer oligonucleotide template, 50 pmol of each XNTP (XATP, XCTP, XGTP, and XTTP), 50 mM Tris HCl, pH 6.79, 200 mM NaCl, 20% PEG, 5% NMS, 0.5 nmol polyphosphate 60.19, 0.3 mM MnCl2, and 0.6 μg of purified recombinant DNA polymerase protein. Reactions may be run for 1 hr at 23° C. Reaction products (i.e., constrained Xpandomers) are treated to cleave the phosphoramidate bonds, thereby generating linearized Xpandomers. Reaction products may be analyzed using gel electrophoresis on 4-12% acrylamide gels to resolve and visualize Xpandomer products of different lengths. For the PEM screen described above, PEMs were typically tested in the micro to millimolar range.
Again, this PEM activity is specific for compound 2, as other unrelated aromatic compounds had no effect (lanes 2-7).

[3] = target: T2, C4552 DNA polymerase (Saccharolobus solfataricus, UniProt Q97W02, A155G/A42V/D156R/D292Y/D294N/E291S/E324K/E325K/E327K/E79L/G187P/G299W/I153V/I189F/I248T/I295S/K152A/K317Q/K321Q/K56Y/K78D/L293W/M76W/N188Y/P184Q/Q82W/Q83G/R300S/S297Y/S86E/T290K/T301W/V289W/V296Q); assay: Primer extension assays using three 100mer templates derived from HIV1, 2 and 3 genomes; assay type: biochemical, Sulfolobus solfataricus; conditions: 0.5 mM PEM; HIV1, HIV2, HIV3 100mer templates; 30 minutes at 23° C.; FIG. 9
T2 construct: made in house
Description: PEM activity of compounds 9-11 was tested in primer extension assays using three 100mer templates, derived from the HIV1, 2, and 3 genomes. Primer extension reactions included the following reagents: 75 mM TrisCl, pH 8.44, 175 mM NH4OAc, 20% PEG8K, 5% NMS, 0.8 nmol PP-60.20, 0.6 mM MnCl2, 2.3 μg Tth single-strand binding protein (SSB), 0.5 M or 1 M urea, 200 pmol each XNTP, 1.1 pmol template, 1 pmol oligonucleotide primer, 1.2 μg purified recombinant C4552 DNA polymerase, and 0.5 mM PEM. 10 μL primer extension reactions were run for 30 minutes at 23° C. and reaction products were analyzed by gel electrophoresis.

[4] = 2 mM compound 16, 0.5, 1, 2, and 3 mM compound 17, Kod SSB, 30 minutes at 37° C., FIG. 13, comparator compound 14 (lane 1)
[5] = 0.5, 1, 1.52, or 2.5 mM PEM, Eco SSB, 30 minutes at 23° C., FIG. 11, comparator compound 10 (lanes 1-4)

T1 sequence (Q97W02 other isoform, or with tags, fused parts or gaps with the stated changes): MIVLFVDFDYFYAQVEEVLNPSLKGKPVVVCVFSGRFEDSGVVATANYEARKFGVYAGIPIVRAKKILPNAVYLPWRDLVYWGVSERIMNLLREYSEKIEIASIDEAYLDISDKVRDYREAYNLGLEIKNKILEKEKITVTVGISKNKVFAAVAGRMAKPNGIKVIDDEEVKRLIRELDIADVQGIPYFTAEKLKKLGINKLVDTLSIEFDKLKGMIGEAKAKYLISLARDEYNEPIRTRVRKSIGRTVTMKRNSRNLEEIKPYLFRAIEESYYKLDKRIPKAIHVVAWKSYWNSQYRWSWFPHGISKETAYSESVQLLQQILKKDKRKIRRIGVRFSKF
T2 sequence (Q97W02 other isoform, or with tags, fused parts or gaps with the stated changes): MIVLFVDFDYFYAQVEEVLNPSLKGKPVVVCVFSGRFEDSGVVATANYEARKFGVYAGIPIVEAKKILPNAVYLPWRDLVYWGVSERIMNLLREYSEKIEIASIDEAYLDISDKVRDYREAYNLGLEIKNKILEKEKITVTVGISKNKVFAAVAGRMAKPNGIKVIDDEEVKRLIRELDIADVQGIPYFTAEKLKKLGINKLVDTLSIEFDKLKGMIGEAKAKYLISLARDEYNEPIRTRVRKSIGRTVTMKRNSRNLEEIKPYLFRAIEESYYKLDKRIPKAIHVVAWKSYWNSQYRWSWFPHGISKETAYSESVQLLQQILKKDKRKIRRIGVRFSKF

COC(=O)c1cc(-c2cn(-c3ccc(C(=O)O)c(O)c3)nn2)nc(-c2cn(-c3ccc(C(=O)O)c(O)c3)nn2)c1 [Compound 16, 4,4′-((4-(methoxycarbonyl)pyridine-2,6-diyl)bis(1H-1,2,3-triazole-4,1-diyl))bis(2-hydroxybenzoic acid)]
PEM activity: polymerization of XNTPs into Xpandomer copies of the 100 mer template [1, 4]: enable polymerization of XNTPs into lengthy Xpandomer copies of the 100 mer template in a manner comparable to that of compound 14

O=C(O)c1ccc(-n2cc(-c3cncc(-c4cn(-c5ccc(C(=O)O)c(O)c5)nn4)c3)nn2)cc1O [Compound 2, 4,4′-(pyridine-3,5-diylbis(1H-1,2,3-triazole-4,1-diyl))bis(2-hydroxybenzoic acid)]
primer extension activity with XNTPs ([2]; FIG. 5 gel, compound at various concentrations (lanes 8-10), without PEM additive modest activity): significantly enhances primer extension activity

N#Cc1cc(-c2cn(-c3ccc(O)c(C(=O)O)c3)nn2)nc(-c2cn(-c3ccc(O)c(C(=O)O)c3)nn2)c1 [Compound 12, 5,5′-((4-cyanopyridine-2,6-diyl)bis(1H-1,2,3-triazole-4,1-diyl))bis(2-hydroxybenzoic acid)]
PEM activity: polymerization of XNTPs into Xpandomer copies of the 100 mer template ([1]; 0.5, 1, or 1.5 mM PEM, Eco SSB, 30 minutes at 23° C., FIG. 10, comparable to compound 10 (lane 1)): enables polymerization of XNTPs into full length Xpandomer copies of the 100 mer template

O=C(O)c1ccc(-n2cc(-c3ccc4[nH]c5ccc(-c6cn(-c7ccc(C(=O)O)c(O)c7)nn6)cc5c4c3)nn2)cc1O [Compound 4, 4,4′-((9H-carbazole-3,6-diyl)bis(1H-1,2,3-triazole-4,1-diyl))bis(2-hydroxybenzoic acid)]
DNA polymerase-mediated primer extension with XNTPs (length of extension products) [2]: enables the polymerase to synthesize considerably longer extension products

COc1cc(-c2cn(-c3ccc(C(=O)O)c(O)c3)nn2)nc(-c2cn(-c3ccc(C(=O)O)c(O)c3)nn2)c1 [Compound 9, 4,4′-((4-methoxypyridine-2,6-diyl)bis(1H-1,2,3-triazole-4,1-diyl))bis(2-hydroxybenzoic acid)]
PEM activity: polymerization of XNTPs into Xpandomer copies of 100 mer templates [3]: enable XNTP polymerization at least as efficiently as compound 1

O=C(O)c1ccc(-n2cc(-c3cc([N+](=O)[O-])cc(-c4cn(-c5ccc(C(=O)O)c(O)c5)nn4)n3)nn2)cc1O [Compound 11, 4,4′-((4-nitropyridine-2,6-diyl)bis(1H-1,2,3-triazole-4,1-diyl))bis(2-hydroxybenzoic acid)]
PEM activity: polymerization of XNTPs into Xpandomer copies of 100 mer templates [3]: enable XNTP polymerization at least as efficiently as compound 1

Cc1cc(-c2cn(-c3ccc(C(=O)O)c(O)c3)nn2)nc(-c2cn(-c3ccc(C(=O)O)c(O)c3)nn2)c1 [Compound 13, 4,4′-((4-methylpyridine-2,6-diyl)bis(1H-1,2,3-triazole-4,1-diyl))bis(2-hydroxybenzoic acid)]
PEM activity: polymerization of XNTPs into Xpandomer copies of the 100 mer template [1, 5]: enables polymerization of XNTPs into full length Xpandomer copies of the 100 mer template in a manner comparable to that of compound 10

CCNC(=O)c1cc(-c2cn(-c3ccc(C(=O)O)c(O)c3)nn2)nc(-c2cn(-c3ccc(C(=O)O)c(O)c3)nn2)c1 [Compound 17, 4,4′-((4-(ethylcarbamoyl)pyridine-2,6-diyl)bis(1H-1,2,3-triazole-4,1-diyl))bis(2-hydroxybenzoic acid)]
PEM activity: polymerization of XNTPs into Xpandomer copies of the 100 mer template [1, 4]: enable polymerization of XNTPs into lengthy Xpandomer copies of the 100 mer template in a manner comparable to that of compound 14

CCOC(=O)c1cc(-c2cn(-c3ccc(C(=O)O)c(O)c3)nn2)nc(-c2cn(-c3ccc(C(=O)O)c(O)c3)nn2)c1 [Compound 14, 4,4′-((4-(ethoxycarbonyl)pyridine-2,6-diyl)bis(1H-1,2,3-triazole-4,1-diyl))bis(2-hydroxybenzoic acid)]
PEM activity: polymerization of XNTPs into Xpandomer copies of the 100 mer template [1, 5]: enables polymerization of XNTPs into full length Xpandomer copies of the 100 mer template in a manner comparable to that of compound 10

O=C(O)c1ccc(-n2cc(-c3cccc(-c4cn(-c5ccc(C(=O)O)c(O)c5)nn4)c3)nn2)cc1O [Compound 3, 4,4′-(1,3-phenylenebis(1H-1,2,3-triazole-4,1-diyl))bis(2-hydroxybenzoic acid)]
DNA polymerase-mediated primer extension with XNTPs (length of extension products) [2]: enables the polymerase to synthesize considerably longer extension products
